According to paper PMC5389473, “DNA polymerase β contains a functional nuclear localization signal at its N-terminus” (Nucleic Acids Research, 2016):
Peptide text beside a SMILES is read from it. * marks the point of attachment. FITC = O=C1OC2(c3ccc(O)cc3Oc3cc(O)ccc32)c2ccc(NC(=S)*)cc21

Tests used:
[1] = molecular target: T1, mImpα1ΔIBB (Mus musculus, UniProt P52293); experiment: Fluorescence polarization, direct binding of FITC-labeled pol β NLS peptide; set-up: species or system murine; settings: abstract, peptide corresponding to pol β residues 2–13
T1 construct: His; made in house
Description: The fluorescein-labeled pol β NLS peptide: S^3[…]^14-Lys(FITC), used for fluorescence polarization assays, was obtained from Genscript at a purity level of > 90%. Methyl methanesulfonate (MMS) was from Sigma-Aldrich. Following a strategy used previously ([61]), we studied a pol β complex with a double-hairpin that forms a one-nucleotide gapped DNA substrate with the following sequence: 5΄-^[…]-3΄ (underlined nucleotide is in the gap). The oligonucleotide was from Oligos Etc., Wilsonville, OR, USA. The non-hydrolyzable deoxynucleoside triphosphate 2΄-deoxyadenosine-5΄-[(α,β)-methyleno]triphosphate (dAPCPP) was obtained from Jena Bioscience.
His-tagged mImpα1 with the Importin β binding domain (IBB) deleted (mImpα1ΔIBB) and its major pocket variant (mImpα1ΔIBB[W184R/W231R]) were prepared as described previously ([56]). […] Protein concentrations were determined by the Edelhoch procedure ([63]).
(§1) Apparent peptide dissociation constants were determined based on fluorescence polarization measurements using the fluorescein-labeled pol β NLS peptide as previously described ([56]). The binding constants for the interaction of pol β lyase domain with the Importin α constructs were determined by displacement of the FITC-labeled NLS peptide using a competition assay as previously described ([56]).

[2] = molecular target: T2, hImpα5ΔIBB (Homo sapiens, UniProt P52294); experiment: Ligand displacement (competition) of FITC-labeled NLS peptide by lyase domain; format: binding; settings: relative to value with mImpα1ΔIBB
T2 construct: human Importin α5, corresponding to residues 66–512, (hImpα5ΔIBB); His (C)
T2 sequence (P52294 66-512, stated change not applied): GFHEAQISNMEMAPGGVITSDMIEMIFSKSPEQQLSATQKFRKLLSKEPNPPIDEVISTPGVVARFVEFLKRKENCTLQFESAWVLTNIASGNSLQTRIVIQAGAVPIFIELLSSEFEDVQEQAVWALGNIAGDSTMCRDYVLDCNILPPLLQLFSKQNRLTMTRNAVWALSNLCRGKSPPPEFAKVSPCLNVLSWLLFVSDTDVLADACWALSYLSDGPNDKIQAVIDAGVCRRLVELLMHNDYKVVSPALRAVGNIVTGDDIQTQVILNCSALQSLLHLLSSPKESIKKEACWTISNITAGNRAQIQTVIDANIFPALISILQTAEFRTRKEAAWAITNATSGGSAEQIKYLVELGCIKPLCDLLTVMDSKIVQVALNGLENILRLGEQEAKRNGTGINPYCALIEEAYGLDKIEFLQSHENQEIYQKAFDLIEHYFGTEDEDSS
Method: His-tagged mImpα1 with the Importin β binding domain (IBB) deleted (mImpα1ΔIBB) and its major pocket variant (mImpα1ΔIBB[W184R/W231R]) were prepared as described previously ([56]). The minor binding pocket double mutant (mImpα1ΔIBB[W357R/W399R]) was created using the QuikChange kit (Agilent). C-terminal His-tagged human Importin α5, corresponding to residues 66–512, (hImpα5ΔIBB) was purchased from Genscript and cloned into the pET30 expression vector. All clones were sequence verified. mImpα1ΔIBB[W357R/W399R] and hImpα5ΔIBB were expressed and purified by the IMAC and gel filtration protocol previously described ([56]). Protein concentrations were determined by the Edelhoch procedure ([63]).
as §1
Figure 3. Binding of the pol β lyase domain to mImpα1ΔIBB and hImpα5ΔIBB. […] The initial fluorescence polarization value corresponds to the fraction of NLS peptide complexed with Impα, so that 100 would correspond to a fully complexed peptide. […]

[3] = molecular target: T2, hImpα5ΔIBB; experiment: Analytical gel filtration of lyase domain / hImpα5ΔIBB mixtures; format: binding; settings: 2-fold excess lyase domain, Superdex 200 10/300 GL, 1 ml/min, 20 mM HEPES, 125 mM NaCl, 5 mM DTT, 1 mM EDTA, pH 7.4
Method: (§2) For an initial assessment of binding, a sample of mImpα1ΔIBB was mixed with a 2.8-fold excess of pol β lyase domain and the sample was eluted on a HiLoad 26/60 Superdex 200 column (GE Healthcare) with a buffer containing 20 mM Tris-HCl, pH 7.8, 125 mM NaCl, 2 mM DTT, 1 mM ethylenediaminetetraacetic acid. For the analytical gel filtration experiments, hImpα5ΔIBB was mixed with 2-fold excess of wild-type or the NLS variant pol β(R4S,K5S) lyase domain and the samples were eluted on a Superdex 200 10/300 GL column (GE Healthcare) with a buffer containing 20 mM HEPES, 125 mM NaCl, 5mM DTT, 1mM ethylenediaminetetraacetic acid, pH 7.4.
Supplementary Figure S4. Interaction of the pol β lyase domain with Impα5. Analytical gel filtration experiments performed on mixtures of hImpa5DIBB and either wild-type or pol b(R4S,K5S) lyase domain.
For these experiments, hImpa5DIBB was mixed with 2-fold excess of wild-type or the NLS variant pol b(R4S,K5S) lyase domain and the samples were eluted at a flow rate of 1 ml/min on a Superdex 200 10/300 GL column (GE Healthcare) with a buffer containing 20 mM HEPES, 125 mM NaCl, 5mM DTT, […]
than Impa5DIBB alone; C) a mixture of Impa5DIBB with pol b(R4S,K5S) lyase domain elutes as two […]

[4] = system: mImpα1ΔIBB; experiment: 1H-15N HSQC NMR binding study; set-up: species or system murine; settings: 130 μM protein, equal concentration mImpα1ΔIBB; 50 mM Tris-d11 pH 7.6, 150 mM KCl; 25°C
Method: For the mImpα1ΔIBB binding experiments, the samples contained 0.13 mM U-[^2H,^15N]pol β and 0.13 mM mImpα1ΔIBB in a buffer consisting of 50 mM Tris-d11 (pH 7.6), 150 mM KCl, 1 mM CDTA, 1 mM dithiothreitol (DTT), 0.1 mM AEBSF, 0.04% NaN3 and 50 μM DSS as an internal chemical shift standard, with 10% D2O for ^1H-^15N HSQC experiments and 100% D2O for ^1H-^13C HSQC experiments. For studies of the effects of the R4S,K5S mutation on pol β structure and function, the [methyl-^13C]methionine-labeled pol β samples contained 0.1 mM pol β or the NLS-variant in the above 100% D2O buffer along with 0.11 mM of a 1-nucleotide gapped double-hairpin DNA substrate and 0.14 mM of the non-hydrolyzable nucleoside triphosphate substrate dAPCPP. Nuclear magnetic resonance (NMR) experiments were performed at 25°C on a Varian UNITY INOVA 600 or 800 MHz NMR spectrometer, using a 5 mm Varian ^1H{^13C,^15N} triple-resonance room-temperature or Cold Probe, equipped with actively shielded Z-gradients. The ^1H-^13C HSQC spectra were acquired using Varian's gChsqc sequence. The spectra were processed using NMRPipe version 2.1 ([64]) and analyzed using NMRView version 5.0.4 ([65]). All spectra were processed using squared cosine bell apodization functions in all dimensions and forward-backward linear prediction in the indirect dimension ([66]).
Figure 1. […]

[5] = system: mImpα1ΔIBB; experiment: Gel filtration of lyase domain / mImpα1ΔIBB mixture; format: binding, murine; settings: 2.8-fold excess lyase domain, HiLoad 26/60 Superdex 200, 20 mM Tris-HCl pH 7.8, 125 mM NaCl, 2 mM DTT, 1 mM EDTA
Method: as §2
Supplementary Figure S2. Interaction of pol β lyase domain with mImpα1DIBB. A sample of mImpα1DIBB was mixed with 2.8-fold excess of pol b lyase domain and the sample was eluted on a HiLoad 26/60 Superdex 200 column (GE Healthcare) with a buffer containing 20 mM Tris-HCL, pH 7.8, […]
125 mM NaCl, 2 mM DTT, 1 mM EDTA. […]
which contain both proteins while the excess pol b lyase domain elutes in fractions 41-43.
(1 picture or pasted object on this page, not shown here)

Row | increase in affinity, hImpα5ΔIBB vs mImpα1ΔIBB [2] | complex formation by analytical gel filtration ([3]; listed as wild-type lyase domain) | effect of mImpα1ΔIBB on 1H-15N HSQC resonances [4] | complex formation by gel filtration ([5]; listed as pol b lyase domain) | Molecule | Kd (in words) [1] | complex formation by analytical gel filtration ([3]; listed as pol b lyase domain) | complex formation by gel filtration [5]
1 |  |  |  |  | CC(C)C[C@H](NC(=O)[C@@H](NC(=O)[C@H](CCC(=O)O)NC(=O)[C@H](CCC(N)=O)NC(=O)[C@@H]1CCCN1C(=O)[C@H](C)NC(=O)[C@H](CCCCN)NC(=O)[C@H](CCCNC(=N)N)NC(=O)[C@H](CCCCN)NC(=O)[C@@H](N)CO)[C@@H](C)O)C(=O)N[C@@H](CC(N)=O)C(=O)NCC(=O)NCC(=O)N[C@@H](CCCCNC(=S)Nc1ccc2c(c1)C(=O)OC21c2ccc(O)cc2Oc2cc(O)ccc21)C(=O)O (H-SKRKAPQETLNGGK(FITC)-OH) | low micromolar Kd |  | 
2 | 8 fold | does elute as a complex | broadened lyase domain amide resonances | the complex elutes in fractions 28-32 | Pol β lyase domain: N-terminal lyase domain of pol β (residues 2–87) |  | a complex of Impa5DIBB with pol b lyase domain elutes earlier | indicated an interaction between the two proteins
